For 27 compounds, IC50 results are on record in BindingDB's records for doi:10.1016/j.bmcl.2012.07.045 (Rhône-Poulenc Rorer, 2012).

This assay has as its target Tyrosine-protein kinase SYK (Homo sapiens) (UniProt P43405). The assay can be described thus: Inhibition of human recombinant full-length Syk using poly-GT as substrate after 40 mins by radioactive filtration assay.
By IC50 is commonly meant the concentration at which inhibition is half-maximal. For the compound `Cc1ccnc(Nc2cccc(-c3ccnc(NCCN)c3)n2)c1`, the IC50 amounted to 200 nM. Turning to `Cc1ccnc(Nc2cccc(-c3ccnc(N4CCCNCC4)c3)n2)c1`, the IC50 stood at 27 nM. With `O=C(Nc1cc(Nc2cnccn2)nc(-c2ccnc(N3CCNCC3)c2)c1)c1ccccc1`, the IC50 stood at 28 nM. `O=C(Nc1cc(Nc2cnccn2)nc(-c2ccnc(N3CCNCC3)c2)c1)c1cncnc1`: the IC50 was 9 nM.

Turning to `Nc1cc(Nc2cnccn2)nc(-c2ccnc(N3CCNCC3)c2)c1`, the IC50 was determined as 4 nM. The same measure for `Cc1ccnc(Nc2cccc(-c3cccc(NCCN)c3)n2)c1`: 91 nM; for `Cc1ccnc(Nc2cccc(-c3ccnc(NCCCN)c3)n2)c1`: 528 nM. On to `CC(=O)N1CCC(C(=O)Nc2cc(Nc3cnccn3)nc(-c3ccnc(N4CCNCC4)c3)c2)CC1`, for which the IC50 worked out at 5 nM.

For `Cc1ccnc(Nc2cccc(-c3cccc(N)c3)n2)c1`, the IC50 worked out at 3240 nM. The same measure for `Cc1ccnc(Nc2cccc(-c3cccc(CN)c3)n2)c1`: 1670 nM; for `O=C(O)c1ccc(C(=O)Nc2cc(Nc3cnccn3)nc(-c3ccnc(N4CCNCC4)c3)c2)cc1`: 8 nM; for `Cc1ccnc(Nc2cccc(-c3cccnc3)n2)c1`: 2700 nM. As for `Cc1ccnc(Nc2cccc(-c3ccnc(N4CCC(N)CC4)c3)n2)c1`, the IC50 is 114 nM. The same measure for `Cc1ccnc(Nc2cccc(-c3ccnc(N4CCNCC4)c3)n2)c1`: 14 nM. As to `c1cc(Nc2cnccn2)nc(-c2ccnc(N3CCNCC3)c2)c1`, the IC50 came to 62 nM.

For `O=C(Nc1cc(Nc2cnccn2)nc(-c2ccnc(N3CCNCC3)c2)c1)C1CCNCC1`, the IC50 is 4 nM. In the case of `Cc1ccnc(Nc2cccc(-c3cccc(CCN)c3)n2)c1`, the IC50 is 160 nM. With `Cc1ccnc(Nc2cccc(-c3ccnc(NCCO)c3)n2)c1`, the IC50 was 1870 nM.

In the case of `CNc1cc(Nc2cnccn2)nc(-c2ccnc(N3CCNCC3)c2)c1`, the IC50 is 4 nM. On to `c1cc(-c2cccc(Nc3cnccn3)n2)cc(N2CCNCC2)c1`, for which the IC50 is 43 nM.

As for `Cc1ccnc(Nc2cccc(-c3ccnc(N4CCC(N)C4)c3)n2)c1` (configuration not stated), the IC50 is 450 nM. As to `Oc1ccc(CNc2cc(Nc3cnccn3)nc(-c3ccnc(N4CCNCC4)c3)c2)cc1`, the IC50 stood at 8 nM. For `O=C(Cc1cccnc1)Nc1cc(Nc2cnccn2)nc(-c2ccnc(N3CCNCC3)c2)c1`, the IC50 was found to be 4 nM.

`FC(F)(F)c1ccnc(Nc2cccc(-c3ccnc(N4CCNCC4)c3)n2)c1`: the IC50 is 1.8 nM.

For `O=C(Nc1cc(Nc2cnccn2)nc(-c2ccnc(N3CCNCC3)c2)c1)c1cccnc1`, the IC50 is 6 nM.

In the case of `O=C(Nc1cc(Nc2cnccn2)nc(-c2ccnc(N3CCNCC3)c2)c1)c1ccc(C(=O)O)nc1`, the IC50 was 10 nM. The same measure for `Cc1cc(C(=O)Nc2cc(Nc3cnccn3)nc(-c3ccnc(N4CCNCC4)c3)c2)n(C)n1`: 7 nM.
